One data set has as its target LHR (Homo sapiens, UniProt P22888). Kind of data set: Selectivity test against LHR. It counts as cell-based.
Another data set concerns the target T1, FSHR (Homo sapiens, UniProt P23945).
T1 sequence (P23945 18-695): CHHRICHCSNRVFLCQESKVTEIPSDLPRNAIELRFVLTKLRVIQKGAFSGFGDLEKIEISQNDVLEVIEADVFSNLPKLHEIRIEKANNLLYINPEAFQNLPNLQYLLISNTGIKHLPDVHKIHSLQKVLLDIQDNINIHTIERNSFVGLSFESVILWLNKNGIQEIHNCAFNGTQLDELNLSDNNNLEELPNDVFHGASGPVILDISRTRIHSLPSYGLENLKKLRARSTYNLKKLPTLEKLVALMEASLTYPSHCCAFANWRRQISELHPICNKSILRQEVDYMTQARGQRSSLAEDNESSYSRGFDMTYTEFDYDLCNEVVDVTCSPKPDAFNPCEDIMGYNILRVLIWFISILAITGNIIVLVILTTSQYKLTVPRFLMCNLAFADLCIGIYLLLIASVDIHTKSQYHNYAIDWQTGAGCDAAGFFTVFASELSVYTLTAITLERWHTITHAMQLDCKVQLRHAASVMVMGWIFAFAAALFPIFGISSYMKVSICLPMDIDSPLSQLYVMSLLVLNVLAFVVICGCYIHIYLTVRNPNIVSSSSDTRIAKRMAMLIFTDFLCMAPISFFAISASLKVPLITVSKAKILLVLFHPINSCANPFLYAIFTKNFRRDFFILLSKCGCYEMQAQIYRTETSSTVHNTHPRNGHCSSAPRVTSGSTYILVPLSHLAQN
Kind of data set: Selectivity test against FSHR. Format: cell-based.

Data set [1] addresses T2, TSHR (Homo sapiens, UniProt P16473). The data set can be described thus: ELISA cAMP assay in HEK-EM293 cells expressing TSHR. Format: cell-based. Particulars: for fold more potent than the hit compound 1a: potency ratio versus 1a.
For data set [2], the target named is T2, TSHR. Particulars: cited from earlier work.
For data set [3] the following is noted: degradation at pH = 2; cited from earlier work.
Data set [4] concerns TSHR. Particulars: mice; cited from earlier work.

SMILES strings stand for the structures. Some results are limits rather than exact numbers.

T2 sequence (P16473 21-764): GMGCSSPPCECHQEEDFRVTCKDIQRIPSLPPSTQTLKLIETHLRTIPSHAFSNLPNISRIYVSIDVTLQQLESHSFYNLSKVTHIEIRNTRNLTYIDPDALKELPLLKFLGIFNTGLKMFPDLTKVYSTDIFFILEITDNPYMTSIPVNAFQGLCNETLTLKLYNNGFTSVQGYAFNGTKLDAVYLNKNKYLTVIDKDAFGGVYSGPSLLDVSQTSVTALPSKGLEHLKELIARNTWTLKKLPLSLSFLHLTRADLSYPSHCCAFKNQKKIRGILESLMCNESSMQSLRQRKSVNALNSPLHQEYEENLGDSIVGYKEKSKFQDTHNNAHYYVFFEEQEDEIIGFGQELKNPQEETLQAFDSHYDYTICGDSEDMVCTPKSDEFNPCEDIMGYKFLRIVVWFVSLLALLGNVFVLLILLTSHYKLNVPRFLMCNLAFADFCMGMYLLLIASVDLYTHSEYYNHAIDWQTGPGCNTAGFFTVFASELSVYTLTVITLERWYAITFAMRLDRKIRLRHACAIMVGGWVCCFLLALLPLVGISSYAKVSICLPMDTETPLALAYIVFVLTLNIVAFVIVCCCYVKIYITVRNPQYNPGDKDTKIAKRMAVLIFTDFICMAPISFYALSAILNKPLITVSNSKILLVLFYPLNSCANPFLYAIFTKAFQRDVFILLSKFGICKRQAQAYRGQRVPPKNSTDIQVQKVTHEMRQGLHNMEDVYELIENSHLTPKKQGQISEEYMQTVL
Sequence of LHR (P22888 27-699): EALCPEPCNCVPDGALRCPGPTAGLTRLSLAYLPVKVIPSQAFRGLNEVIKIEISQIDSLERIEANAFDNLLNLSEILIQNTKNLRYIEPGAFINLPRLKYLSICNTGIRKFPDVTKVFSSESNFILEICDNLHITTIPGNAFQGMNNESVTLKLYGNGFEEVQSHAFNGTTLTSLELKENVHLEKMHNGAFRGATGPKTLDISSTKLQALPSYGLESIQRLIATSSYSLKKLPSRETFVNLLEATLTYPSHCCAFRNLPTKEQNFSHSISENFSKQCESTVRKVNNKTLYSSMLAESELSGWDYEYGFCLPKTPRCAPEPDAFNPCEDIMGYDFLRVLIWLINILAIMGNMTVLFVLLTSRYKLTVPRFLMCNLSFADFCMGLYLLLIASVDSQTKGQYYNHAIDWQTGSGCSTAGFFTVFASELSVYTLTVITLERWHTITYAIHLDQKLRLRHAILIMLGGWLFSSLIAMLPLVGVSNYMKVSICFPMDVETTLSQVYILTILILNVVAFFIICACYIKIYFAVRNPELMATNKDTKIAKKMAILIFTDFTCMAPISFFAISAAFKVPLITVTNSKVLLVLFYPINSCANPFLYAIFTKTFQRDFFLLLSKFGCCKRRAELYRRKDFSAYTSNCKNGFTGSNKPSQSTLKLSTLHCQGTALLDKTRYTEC

As for `COc1ccc(C2Nc3ccccc3C(=O)N2Cc2ccco2)cc1COc1ccc(NC(C)=O)cc1` (stereo not shown) [Compound 1a], at LHR, the LHR efficacy result is reported as “no detectable”. Besides, at FSHR, the FSHR efficacy entry was “no detectable”.
In the case of `COc1ccc(C2Nc3cccc(O)c3C(=O)N2Cc2ccccc2)cc1COc1ccc(NC(C)=O)cc1` (stereo not shown) [Compound 1b], at TSHR [1] (HEK-EM293), the maximal response (Emax) was 100%. In addition, the “fold improvement in potency” value on TSHR [1] (R2 OH versus H (1g) or F (1e)) is recorded as 3 fold. Moreover, the “fold more potent than the hit compound 1a” value on TSHR [1] is recorded as “at least 10 fold”. Besides, the “TSHR agonism (type)” value at TSHR [2] is given as “full TSHR agonist”. Also, in data set [3], the half-life is 3 h. Besides, the in vivo efficacy entry in the data set with TSHR [4] is “in vivo efficacy in mice”.
Take `COc1ccc(C2Nc3ccccc3C(=O)N2Cc2ccccc2)cc1COc1ccc(NC(C)=O)cc1` (stereo not shown) [Compound 1g]: the “fold more potent than the hit compound 1a” value at TSHR [1] is 4 fold.
`COc1ccc(C2Nc3ccccc3C(=O)N2CCc2ccccc2)cc1COc1ccc(NC(C)=O)cc1` (stereo not shown) [Compound 1m]: on TSHR [1] (versus benzyl analogue 1g), the “fold reduction in potency” value is 2 fold.
On to `COc1ccc(C2Nc3ccccc3C(=O)N2Cc2ccccc2)cc1CSc1ccc(NC(C)=O)cc1` (stereo not shown) [Compound 8a], for which, at TSHR [1], the “fold more potent than the hit compound 1a” value is on record as “at least 10 fold”.
As for `COc1ccc(C2Nc3cccc(O)c3C(=O)N2Cc2ccccc2)cc1CSc1ccc(NC(C)=O)cc1` (stereo not shown) [Compound 8b], the “fold increase in potency” value on TSHR [1] (Y oxygen replaced with sulfur (8b vs 1b, 8a vs 1g)) is listed as at most 5 fold. Further, on LHR, the “selectivity for TSHR over LHR” value is “maintain selectivity for TSHR over LHR and FSHR”. In addition, at FSHR, the “selectivity for TSHR over FSHR” value is “maintain selectivity for TSHR over LHR and FSHR”.
As to `COc1ccc(-c2nc3cccc(O)c3c(=O)n2Cc2ccccc2)cc1COc1ccc(NC(C)=O)cc1` [Compound 9c], at LHR, the “selectivity for TSHR over LHR” value was “selective for TSHR over LHR and FSHR”. Further, the “selectivity for TSHR over FSHR” value on FSHR is “selective for TSHR over LHR and FSHR”.

The values above are taken from paper PMC3293179 (MedChemComm, 2011).
